Data from patent US6808904B2, “Herbicide-tolerant protox genes produced by DNA shuffling” (priority 1994, dated 2004).

Assays:
[1] = test system: Arabidopsis line expressing AraC-2Ile+AraC305Leu; assay: Cross tolerance in a seed germination assay, homozygous Arabidopsis line with AraC-2Ile+AraC305Leu; type: in vivo, Arabidopsis thaliana; conditions: AraC-2Ile+AraC305Leu line vs wt
Description: Using the procedure described above, an Arabidopsis protox-1 cDNA containing a TAC to ATG (Tyrosine to Methionine) change at nucleotides 1306-1308 in the protox-1 sequence (SEQ ID NO:1) was fused to the native protox-1 promoter fragment and transformed into Arabidopsis thaliana. […] Seed from the vacuum infiltrated plants was collected and plated on a range (10.0 nM-1.0 uM) of a protox inhibitory aryluracil herbicide of formula XVII. Multiple experiments with wild type Arabidopsis have shown that a 10.0 nM concentration of this compound is sufficient to prevent normal seedling germination. Transgenic seeds expressing the AraC-2Met altered enzyme fused to the native protox-1 promoter produced normal Arabidopsis seedlings at herbicide concentrations up to 500 nM, indicating at least 50-fold higher herbicide tolerance when compared to wild-type Arabidopsis. This promoter/altered protox enzyme fusion therefore functions as an effective selectable marker for plant transformation. Several of the plants that germinated on 100.0 nM of protox-inhibiting herbicide were transplanted to soil, grown 2-3 weeks, and tested in a spray assay with various concentrations of the protox-inhibiting herbicide. When compared to empty vector control transformants, the AraPT1Pro/AraC-2Met transgenics were >10-fold more tolerant to the herbicide spray.
Using the procedure described above, an Arabidopsis protox-1 cDNA containing both a TAC to ATC (tyrosine to isoleucine) change at nucleotides 1306-1308 and a TCA to TTA (serine to leucine) change at nucleotides 945-947 in the protox-1 sequence (SEQ ID NO:1) was fused to the native protox-1 promoter fragment and transformed into Arabidopsis thaliana.

maize protox-1 mutants = assay: Mutant screens of maize protox-1 (pMut-3) in the E. coli system; type: cell-based; conditions: double mutant; screen on this herbicide
Description: The pMut-3 plasmid was transformed into the mutator XL1-Red strain as described above and the mutated DNA was isolated and plated on a herbicide concentration (formula XVII) that was lethal to the unmutagenized pMut-3 maize protox gene. Herbicide tolerant colonies were isolated after two days at 37° C. and analyzed as described above. […] Three of these mutations correspond to amino acid changes previously shown to confer tolerance at the homologous position in the Arabidopsis protox-1 gene. Two of the three are pMzC-1Val and pMzC-1Thr, converting the alanine (GCT) at amino acid 164 (SEQ ID NO:6) to either valine ([…]) or to threonine (ACT). This position corresponds to the pAraC-1 mutations described above (see, Table 1B; sub-sequence 3). The third analogous change, pMzC-3Ser, converts the glycine (GGT) at amino acid 165 to Serine (AGT), corresponding to the AraC-3Ser mutation described above (see, Table 1B; sub-sequence 4).
Additional mutant screens performed as described earlier in this example, except using formulas XXIIIa and XXIIIb instead of XVII, identified three additional amino acid changes that confer tolerant protox enzymes. […]

SMILES	Tolerance [1]	tolerance of maize enzyme Mz347Ser453Thr (maize protox-1 mutants)
O=C([O-])c1cc(Oc2ccc(C(F)(F)F)cc2Cl)ccc1[N+](=O)[O-].[Na+] [II]	+ (+ ≧ 10× more tolerant than wt)	–
CCOC(=O)C(C)OC(=O)c1cc(Oc2ccc(C(F)(F)F)cc2Cl)ccc1[N+](=O)[O-] (stereo not drawn) [IVd]	± (± ≦ 10× more tolerant than wt)	–
CS(=O)(=O)NC(=O)c1cc(Oc2ccc(C(F)(F)F)cc2Cl)ccc1[N+](=O)[O-] [III]	+ (+ ≧ 10× more tolerant than wt)	–
CCOc1cc(Oc2ccc(C(F)(F)F)cc2Cl)ccc1[N+](=O)[O-] [IVc]	+ (+ ≧ 10× more tolerant than wt)	–
Cn1nc(-c2ncc(Cl)cc2F)c(Cl)c1OC(F)F [Formula XXIIIa]	–	highly tolerant
CC(Cl)C(=O)Nc1c([N+](=O)[O-])cnn1-c1c(Cl)cc(C(F)F)cc1Cl (stereo not drawn) [XXIa]	+ (+ ≧ 10× more tolerant than wt)	–
